For one assay, the system named is brachial artery. The assay can be described thus: Study 2: brachial artery flow-mediated and nitroglycerin-mediated vasodilation. Type of assay: in vivo, human. Here is the method: Brachial artery endothelium-dependent and -independent function was measured using ultrasound, at baseline, after 8 weeks of BH4 treatment, and 1 week after discontinuation of therapy. The technique was carried out as described in Prasad et al., Circulation, 2000. 101(20): p. 2349-54. Briefly, using an 11 MHz high resolution ultrasound transducer (Acuson Inc) in a temperature-controlled room, brachial diameter was measured above the antecubital fossa in the non-dominant arm. Flow-mediated vasodilation (FMD) was measured by inflating a BP cuff on the forearm to >200 mm Hg for 5 minutes, deflating rapidly, and measuring brachial diameter at 1 minute after onset of hyperemia. For all measurements three diameters were measured on three separate end-diastolic frames and averaged. To obtain the maximal brachial artery dilation that represents FMD the following equation was used: (average diameter with hyperemia−average baseline diameter)÷average baseline diameter X 100. To measure the endothelium-independent vasodilator response, subjects were given sublingual nitroglycerin 0.4 mg and the brachial diameter was measured as above after 5 minutes. To obtain endothelium-independent vasodilation the following equation was used: (average diameter post nitroglycerin-average baseline diameter)÷average baseline diameter X 100. For both study 1 and study 2, the primary end point after statistical analysis was a reduction of systolic, mean and diastolic BP during BH4 therapy. Secondary end points included improvement of endothelial function as FMD. Linear mixed effects models for repeated measures data were used to analyze change in BP from baseline to end of treatment period and differences in change between 100 mg and 200 mg dose groups. A quadratic term for week was included in the model to account for non-linear trends over the treatment period. Dose, week and week squared were the main effect terms in the model; dose by week and dose by week squared were the interaction terms in the model. Significant interaction terms indicate a difference in the pattern of change between the two dose groups. FMD data was analyzed using the two-tailed student t-test. […] In study 2, brachial artery endothelium-dependent and independent function was measured, as described above, at the end of the 2-week vitamin C run-in period, at the end of 4 weeks of oral BH4 therapy, and 4 weeks after discontinuation of BH4.

Assay [1] concerns subjects with sickle cell disease. Description: Phase 2a sickle cell disease study: endothelial function by EndoPAT. Type of assay: in vivo, human. The following applies: preliminary findings, sickle cell disease patients treated with BH4. Here is the method: This Phase 2a multicenter, open-label, dose-escalation study is designed to assess the safety and biologic activity of once daily (for 2.5, 5, and 10 mg/kg/day doses) or twice daily (for the 20 mg/kg/day dose) oral administration of 4 escalating doses of 6R-BH4 to subjects with SCD. During an optional extension phase, the study will assess the safety, tolerability, and efficacy of extended treatment with 6R-BH4. Subjects will receive oral, once-daily (for 2.5, 5, and 10 mg/kg/day) or twice-daily (for 20 mg/kg/day) doses of 6R-BH4 during a 16-week dose-escalation phase, with dose levels increasing within subjects every 4 weeks, as follows: 2.5, 5, 10, and 20 mg/kg/day. Prior to dose escalation, the each subject will be evaluated with respect to safety profile during the previous dose level, using predefined parameters. […] Endothelial function will be evaluated using Doppler echocardiogram (DE), peripheral arterial tonometry (EndoPAT), and exhaled nitric oxide (NO). The symptoms of SCD (frequency of sickle cell crises and vaso-occlusive crises), along with changes in the 6-minute-walk (MW) test, will be monitored. […] The number of tablets will be determined by the dose of sapropterin dihydrochloride, rounded to the nearest 100 mg. […]

The conditions of assay [2]: patients with Type II diabetes and coronary heart disease compared to control subjects; cited from earlier work.
In a further assay the test system is coronary vessel. The conditions noted are these: in vivo; cited from earlier work.

Structures are written as SMILES.

Consider 1 molecule from patent US20090018136A1, “METHODS AND COMPOSITIONS FOR THE TREATMENT OF VASCULAR DISEASE” (priority 2005, published 2009).

As to `C[C@H](O)[C@H](O)[C@H]1CNc2nc(N)[nH]c(=O)c2N1` [BH4, tetrahydrobiopterin], the FMD with brachial artery (Study 2, 100 mg b.i.d., after therapy, 5.3±2.5% before, p=0.55, no significant change) worked out at 6.2±3.5%; in the assay with brachial artery (Study 2, 200 mg b.i.d., after 4 weeks of therapy, 3.7±3% at start, p=0.016, n=7) it was 7.1±4.9%; with brachial artery (Study 2, 200 mg b.i.d., one month after discontinuation, p=0.6 compared to baseline) it was 3.2±1.1%. For the same molecule, in the assay with brachial artery (Study 2, either group), the “change in nitroglycerin-mediated, endothelium-independent vasodilation” value was “no significant change”. Further, the “endothelial function as measured by the EndoPAT device” value in assay [1] is “improvement”. Further, the insulin sensitivity result in assay [2] is on record as “increases”. In addition, the coronary vessel flow entry with coronary vessel was “increased”.
